Experimental data: US12577227B2, “WDR5 inhibitors and modulators” (Vanderbilt University, priority 2019, dated 2026)

What follows are compounds tested on MV4:11 human cancer cell lines (assay: Cellular viability / anti-proliferative activity (CellTiter-Glo)). Conditions: MV4-11, 120 h, MV-4-11 cells, 5 day protocol, mean of minimum two replicates, read-out: GI50 on cellular proliferation of MV4:11 human cancer cell lines.
Type: cell-based
Method: Cellular Viability of Human Tumor Cell Lines
Anti-Proliferative Activity Using MLL-Harboring Cell Lines.
MV-4-11 and K562 cells are grown in IMDM media supplemented with 10% FBS and […], Molm-13 cells are cultured in RPMI-1640 media supplemented with 10% FBS and 1% o penicillin/streptomycin. Viability assays are performed by dispensing 200 cells at 7200 cells/mL into each well of an opaque 384-well plate and adding compounds at the indicated concentrations in a final volume of 32 μL and a final concentration of DMSO of 0.3% for all samples. A certain range of compound concentrations is made through a series of 2-fold dilutions starting 30 μM at the highest, total 22 dilutions. After a set incubation period, 5 day protocol, the viability of cells in each well is assessed using the CellTiter-Glo assay (Promega), read on a 96 Microplane Luminometer (Cytation 3, BioTek). Serial dilutions of each cell type are performed in all assays to generate standard curves and the final densities of cells are determined within the dynamic range of the instrument. GI50 values are calculated based on XLfit software (IDBS, Guildford, UK) with Sigmoidal Dose-Response Model. Each compound is tested in minimum of two replicates. Data are expressed as mean.

Compound | GI50 [µM]
CCc1nccn1Cc1cc2c(c(-c3cn(C)nc3C(F)(F)F)c1)OCCN(Cc1cc(C)cc(C)n1)C2=O [Example 38, 4-((4,6-Dimethylpyridin-2-yl)methyl)-7-((2-ethyl-1H-imidazol-1-yl)methyl)-9-(1-methyl-3-(trifluoromethyl)-1H-pyrazol-4-yl)-3,4-dihydrobenzo[f][1,4]oxazepin-5(2H)-one] | 0.262
CCc1cc(C(=O)NCCN(C)C)c2nccc(N3CCOc4c(cc(Cn5ccnc5)cc4-c4cn(C)nc4C(F)(F)F)C3=O)c2c1 [Example 73, 4-(7-((1H-imidazol-1-yl)methyl)-9-(1-methyl-3-(trifluoromethyl)-1H-pyrazol-4-yl)-5-oxo-2,3-dihydrobenzo[f][1,4]oxazepin-4(5H)-yl)-N-(2-(dimethylamino)ethyl)-6-ethylquinoline-8-carboxamide] | 0.255
COc1cc(CN2C[C@H](C)Oc3c(cc(Cn4ccn(C)c4=N)cc3-c3ccc(F)cc3C)C2=O)cc(OC)c1 [Example 35, (S)-4-(3,5-Dimethoxybenzyl)-9-(4-fluoro-2-methylphenyl)-7-((2-imino-3-methyl-2,3-dihydro-1H-imidazol-1-yl)methyl)-2-methyl-3,4-dihydrobenzo[f][1,4]oxazepin-5(2H)-one] | 0.306
CCn1cc(-c2cc(Cn3ccnc3)cc3c(=O)n([C@H](c4cc(OC)ccn4)C4CC4)cnc23)c(C(F)(F)F)n1 [Example 62, (S)-6-((1H-imidazol-1-yl)methyl)-3-(cyclopropyl(4-methoxypyridin-2-yl)methyl)-8-(1-ethyl-3-(trifluoromethyl)-1H-pyrazol-4-yl)quinazolin-4(3H)-one] | 1.38
Cc1ccnc(CN2C[C@@H](C)Oc3c(cc(Cn4ccnc4C)cc3-c3cn(C)nc3C(F)(F)F)C2=O)c1 [Example 40, (R)-2-Methyl-7-((2-methyl-1H-imidazol-1-yl)methyl)-9-(1-methyl-3-(trifluoromethyl)-1H-pyrazol-4-yl)-4-((4-methylpyridin-2-yl)methyl)-3,4-dihydrobenzo[f][1,4]oxazepin-5(2H)-one] | 0.529
Cc1cc(C)nc(CN2CCOc3c(cc(Cn4ccnc4C)cc3-c3ccc(F)cc3C)C2=O)c1 [Example 41, 4-((4,6-Dimethylpyridin-2-yl)methyl)-9-(4-fluoro-2-methylphenyl)-7-((2-methyl-1H-imidazol-1-yl)methyl)-3,4-dihydrobenzo[f][1,4]oxazepin-5(2H)-one] | 0.985
COc1cc(Cn2c(C)nc3c(-c4ccc(F)cc4C)cc(CNC4=NCCN4)cc3c2=O)cc(OC)c1 [Example 21, 6-(((4,5-Dihydro-1H-imidazol-2-yl)amino)methyl)-3-(3,5-dimethoxybenzyl)-8-(4-fluoro-2-methylphenyl)-2-methylquinazolin-4(3H)-one] | 0.194
COc1cc(CN2CCOc3c(cc(CNc4nocc4C)cc3-c3ccc(F)cc3C)C2=O)cc(OC)c1 [Example 7, 4-(3,5-Dimethoxybenzyl)-9-(4-fluoro-2-methylphenyl)-7-(((4-methylisoxazol-3-yl)amino)methyl)-3,4-dihydrobenzo[f][1,4]oxazepin-5(2H)-one] | > 0.94
COc1cc(Cn2cnc3c(-c4ccc(F)cc4C)cc(Cn4ccoc4=N)cc3c2=O)cc(OC)c1 [Example 19, 3-(3,5-Dimethoxybenzyl)-8-(4-fluoro-2-methylphenyl)-6-((2-iminooxazol-3(2H)-yl)methyl)quinazolin-4(3H)-one] | 7.98
COc1cc(CN2C[C@@H](C)Oc3c(cc(Cn4ccn(C)c4=N)cc3-c3ccc(F)cc3C)C2=O)cc(OC)c1 [Example 33, (R)-4-(3,5-dimethoxybenzyl)-9-(4-fluoro-2-methylphenyl)-7-((2-imino-3-methyl-2,3-dihydro-1H-imidazol-1-yl)methyl)-2-methyl-3,4-dihydrobenzo[f][1,4]oxazepin-5(2H)-one] | 0.13
COc1cc(CN2CC(=O)Nc3c(cc(Cn4ccn(C)c4=N)cc3-c3ccc(F)cc3C)C2=O)cc(OC)c1 [Example 14, 4-(3,5-Dimethoxybenzyl)-9-(4-fluoro-2-methylphenyl)-7-((2-imino-3-methyl-2,3-dihydro-1H-imidazol-1-yl)methyl)-3,4-dihydro-1H-benzo[e][1,4]diazepine-2,5-dione] | 0.167
COc1cc(CN2CC(=O)Nc3c(cc(Cn4ccoc4=N)cc3-c3ccc(F)cc3C)C2=O)cc(OC)c1 [Example 30, 4-(3,5-Dimethoxybenzyl)-9-(4-fluoro-2-methylphenyl)-7-((2-iminooxazol-3(2H)-yl)methyl)-3,4-dihydro-1H-benzo[e][1,4]diazepine-2,5-dione] | 0.19
COc1cc(CN2CCOc3c(cc(Cn4ccoc4=N)cc3-c3ccc(F)cc3C)C2=O)cc(OC)c1 [Example 9, 4-(3,5-Dimethoxybenzyl)-9-(4-fluoro-2-methylphenyl)-7-((2-iminooxazol-3(2H)-yl)methyl)-3,4-dihydrobenzo[f][1,4]oxazepin-5(2H)-one] | 0.259
Cc1ccnc(CN2CCOc3c(cc(Cn4ccnc4C)cc3-c3ccc(F)cc3C)C2=O)c1 [Example 25, 9-(4-Fluoro-2-methylphenyl)-7-((2-methyl-1H-imidazol-1-yl)methyl)-4-((4-methylpyridin-2-yl)methyl)-3,4-dihydrobenzo[f][1,4]oxazepin-5(2H)-one] | 0.3
Cc1ccnc(CN2C[C@H](C)Oc3c(cc(Cn4ccnc4C)cc3-c3cn(C)nc3C(F)(F)F)C2=O)c1 [Example 39, (S)-2-Methyl-7-((2-methyl-1H-imidazol-1-yl)methyl)-9-(1-methyl-3-(trifluoromethyl)-1H-pyrazol-4-yl)-4-((4-methylpyridin-2-yl)methyl)-3,4-dihydrobenzo[f][1,4]oxazepin-5(2H)-one] | 0.73

Stronger by GI50, values ahead:

GI50 [µM] | Compound
0.05 | COc1ccnc([C@H](C)N2CCOc3c(cc(Cn4ccnc4C)cc3-c3ccc(F)cc3C)C2=O)c1 [Example 50, (S)-9-(4-Fluoro-2-methylphenyl)-4-(1-(4-methoxypyridin-2-yl)ethyl)-7-((2-methyl-1H-imidazol-1-yl)methyl)-3,4-dihydrobenzo[f][1,4]oxazepin-5(2H)-one]
0.079 | COc1cc(CN2CCOc3c(cc(Cn4ccn(C)c4=N)cc3-c3cn(C)nc3C(F)(F)F)C2=O)cc(OC)c1 [Example 16, 4-(3,5-Dimethoxybenzyl)-7-((2-imino-3-methyl-2,3-dihydro-1H-imidazol-1-yl)methyl)-9-(1-methyl-3-(trifluoromethyl)-1H-pyrazol-4-yl)-3,4-dihydrobenzo[f][1,4]oxazepin-5(2H)-one]
0.077 | COc1ccc2nccc(N3CCOc4c(cc(Cn5ccnc5C)cc4-c4cn(C)nc4C(F)(F)F)C3=O)c2c1 [Example 58, 4-(6-Methoxyquinolin-4-yl)-7-((2-methyl-1H-imidazol-1-yl)methyl)-9-(1-methyl-3-(trifluoromethyl)-1H-pyrazol-4-yl)-3,4-dihydrobenzo[f][1,4]oxazepin-5(2H)-one]
0.038 | COc1cc(CN2CCNc3c(cc(Cn4ccn(C)c4=N)cc3-c3ccc(F)cc3C)C2=O)cc(OC)c1 [Example 29, 4-(3,5-Dimethoxybenzyl)-9-(4-fluoro-2-methylphenyl)-7-((2-imino-3-methyl-2,3-dihydro-1H-imidazol-1-yl)methyl)-1,2,3,4-tetrahydro-5H-benzo[e][1,4]diazepin-5-one]
0.045 | Cc1cc(C)nc(CN2CCOc3c(cc(Cn4ccnc4C)cc3-c3cc(C)ccc3C)C2=O)c1 [Example 49, 9-(2,5-Dimethylphenyl)-4-((4,6-dimethylpyridin-2-yl)methyl)-7-((2-methyl-1H-imidazol-1-yl)methyl)-3,4-dihydrobenzo[f][1,4]oxazepin-5(2H)-one]
0.009 | COc1ccnc([C@H](C)N2CCOc3c(cc(Cn4cnn(C)c4=N)cc3-c3ccc(F)cc3Cl)C2=O)c1 [Example 54, (S)-9-(2-Chloro-4-fluorophenyl)-7-((5-imino-1-methyl-1,5-dihydro-4H-1,2,4-triazol-4-yl)methyl)-4-(1-(4-methoxypyridin-2-yl)ethyl)-3,4-dihydrobenzo[f][1,4]oxazepin-5(2H)-one]
0.111 | CCn1cc(-c2cc(Cn3ccnc3C)cc3c2OCCN([C@H](c2cc(OC)ccn2)C2CC2)C3=O)c(C(F)(F)F)n1 [Example 60, (S)-4-(Cyclopropyl(4-methoxypyridin-2-yl)methyl)-9-(1-ethyl-3-(trifluoromethyl)-1H-pyrazol-4-yl)-7-((2-methyl-1H-imidazol-1-yl)methyl)-3,4-dihydrobenzo[f][1,4]oxazepin-5(2H)-one]
0.037 | COc1ccnc([C@H](C)N2CCOc3c(cc(Cn4ccnc4C)cc3-c3cc(C)ccc3C)C2=O)c1 [Example 56, (S)-9-(2,5-Dimethylphenyl)-4-(1-(4-methoxypyridin-2-yl)ethyl)-7-((2-methyl-1H-imidazol-1-yl)methyl)-3,4-dihydrobenzo[f][1,4]oxazepin-5(2H)-one]
0.07 | CCn1cc(-c2cc(Cn3ccnc3)cc3c2OCCN([C@H]2CCOc4ccc(OC)cc42)C3=O)c(C(F)(F)F)n1 [Example 63, (S)-7-((1H-imidazol-1-yl)methyl)-9-(1-ethyl-3-(trifluoromethyl)-1H-pyrazol-4-yl)-4-(6-methoxychroman-4-yl)-3,4-dihydrobenzo[f][1,4]oxazepin-5(2H)-one]
